Measurements from patent US20250049773A1, “INHIBITION OF STEROL RESPONSE ELEMENT BINDING PROTEINS AS ATARGET FOR SELECTIVE ELIMINATION OF SENESCENT CELLS” (Trustees of Tufts College, priority 2021, published 2025).

Key:
IMR-90 fibroblasts = assay: Selective killing of senescent versus quiescent IMR-90 fibroblasts by SRE-BP activation inhibitors; format: cell-based; settings: 30 μM
Experimental: FIGS. 1A and 1B. SRE-BP activation inhibitors selectively kill senescent cells. IMR-90 fibroblasts were induced to senesce with either 10 Gy of ionizing radiation (IR), 250 nM doxorubicin [SEN(DOXO)], or quiescent vehicle control (QUI) for 24 hours. Media was then replaced with drug-free growth media, and senescence was allowed to develop for 12 days. On day 12, growth media (10% serum) was replaced with quiescence media (0.2% serum+ITS supplement) for 48 hours to induce quiescence in non-senescent cells. On day 14, media was replaced with quiescence media containing increasing doses of fatostatin (A), xanthohumol (B), PF-429242 (C), or 30 micromolar betulin (D). DMSO served as a 0 micromolar vehicle control. \<0.001

[1] = test system: senescent cells in the liver; assay: Markers of senescence and SASP factors in liver of high fat diet mice by qRT-PCR; format: in vivo
Experimental: FIGS. 2A, 2B, 2C, and 2D. […] Mice were fed a high fat diet (HFD) or high fat diet with 60 mg/kg xanthohumol (HFD+XN) for 12 weeks. RNA was extracted from mice and analyzed by quantitative PCR for (A) p21^WAF1, (B) p16^INK4a, (C) p15^INK4b, and (D) SASP factors.
Prolonged high fat diet (HFD) induces the generation of senescent cells in the liver. To test the hypothesis that inhibitors of SRE-BP activation are senolytic, two groups of mice were fed a HFD for 12 weeks. A control group was fed a HFD alone (FIG. 2, HFD), and an experimental group (FIG. 2, HFD+XN) was fed a HFD and the SRE-BP activation inhibitor xanthohumol (XN). RNA was isolated from liver samples from each group and subjected to quantitative reverse transcriptase polymerase chain reaction (qRT-PCR). […] Accordingly, the data presented in FIG. 2D supports the hypothesis that SRE-BP activation inhibitors, e.g., xanthohumol, are senolytic.

[2] = SASP factor, mice, HFD + 60 mg/kg xanthohumol for 12 weeks vs HFD alone, liver RNA, qRT-PCR
[3] = mice, HFD + 60 mg/kg xanthohumol for 12 weeks vs HFD alone, liver RNA, qRT-PCR

SMILES	toxicity to senescent cells versus quiescent cells (IMR-90 fibroblasts)	expression of 2′, 5′ oligoadenylate synthetase 2 (Oas2) [1, 2]	expression of C-C motif chemokine 2 (Ccl2) [1, 2]	expression of arachidonate 5-lipoxygenase (Alox5) [1, 2]	expression of growth differentiation factor 15 (Gdf15) [1, 2]	expression of interleukin 6 (IL-6) [1, 2]	expression of matrix metalloproteinase 3 (MMP3) [1, 2]	expression of plasminogen activator, urokinase (Plau) [1, 2]	expression of prostaglandin-endoperoxide synthase 2 (Ptgs2) [1, 2]	expression of serpin family E member 1 (Serpine1), encoding plasminogen activator inhibitor 1 (PAI-1) [1, 2]	expression of marker of senescence p15^INK4b [1, 3]	expression of marker of senescence p16^INK4a [1, 3]	expression of marker of senescence p21^WAF1 [1, 3]	several genes characteristic of SASP in mouse livers ([1]; summary statement, after administration of xanthohumol, qRT-PCR)	markers of senescence in vivo ([1]; summary statement, mice, HFD + 60 mg/kg xanthohumol for 12 weeks vs HFD)
C=C(C)[C@@H]1CC[C@]2(CO)CC[C@]3(C)[C@H](CC[C@@H]4[C@@]5(C)CC[C@H](O)C(C)(C)[C@@H]5CC[C@]43C)[C@@H]12 [betulin]	significantly more toxic to senescent cells than quiescent cells	–	–	–	–	–	–	–	–	–	–	–	–	–	–
COc1cc(O)c(CC=C(C)C)c(O)c1C(=O)/C=C/c1ccc(O)cc1 [xanthohumol]	–	reduced expression	reduced expression	reduced expression	reduced expression	reduced expression	reduced expression	reduced expression	reduced expression	reduced expression	reduced expression	reduced expression	reduced expression	reduced	lowers markers of senescence
